Drawing on ChEMBL document CHEMBL1134425, “alpha-Amino-beta-sulphone hydroxamates as potent MMP-13 inhibitors that spare MMP-1” (Bioorg Med Chem Lett, 2001), this text covers IC50, Cmax and Selectivity for 23 molecules.

Molecules are shown by their SMILES.

The target of one series is Collagenase 3 (Homo sapiens, UniProt P45452). Briefly: Inhibition of Matrix metalloprotease-13.
Series [1] can be described thus: Maximum plasma concentration dosed orally in rats. The class given is ADME, organism-based. Details: route oral. The settings on record: rat, po.
The next series deals with T1, Interstitial collagenase (Homo sapiens, UniProt P03956).
T1 sequence (P03956 whole entry): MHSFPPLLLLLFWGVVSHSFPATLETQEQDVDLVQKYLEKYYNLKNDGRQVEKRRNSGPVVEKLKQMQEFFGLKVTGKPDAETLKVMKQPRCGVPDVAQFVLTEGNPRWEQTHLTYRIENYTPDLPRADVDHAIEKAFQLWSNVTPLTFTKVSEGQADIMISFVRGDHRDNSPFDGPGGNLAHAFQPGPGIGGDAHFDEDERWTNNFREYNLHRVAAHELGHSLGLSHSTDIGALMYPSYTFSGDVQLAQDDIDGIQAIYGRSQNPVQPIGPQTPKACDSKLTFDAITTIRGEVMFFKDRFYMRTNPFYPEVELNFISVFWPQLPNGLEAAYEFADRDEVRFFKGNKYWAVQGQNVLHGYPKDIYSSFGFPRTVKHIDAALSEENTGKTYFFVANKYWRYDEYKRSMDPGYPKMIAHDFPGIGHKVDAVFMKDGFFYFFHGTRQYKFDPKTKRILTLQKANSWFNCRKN
Nature of the series: Inhibition of Matrix metalloprotease-1.

Series [2] has as its target Matrix metalloproteinase (1 and 13) (Homo sapiens) (UniProt P45452+P03956). Briefly: Selectivity for Matrix metalloprotease-1 over Matrix metalloprotease-13. It is filed as protein assay.
The nature of series [3]: Maximum plasma concentration dosed orally in rats after 6 hours. The class given is ADME, organism-based. Details: route oral. The settings on record: rat, po.

Broadly, the IC50 is the concentration needed to halve the response being measured. As usually defined, the Cmax is the highest concentration seen after dosing. Regarding `CC(=O)N(C)[C@H](CS(=O)(=O)c1ccc(Oc2ccccc2)cc1)C(=O)NO`, the IC50 came out at 0.2 nM at Collagenase 3 and 90 nM against Interstitial collagenase. Also, the Cmax in series [1] is 2450 ng/mL; in series [3] it was 60 ng/mL. The Selectivity in series [2] stood at 450.

Turning to `CC(=O)NC(CS(=O)(=O)c1ccc(Oc2ccccc2)cc1)C(=O)NO` (centres undefined), the results for the IC50 on Collagenase 3 and at Interstitial collagenase were 1.1 nM and 770 nM, respectively. Moreover, in series [2], the Selectivity was determined as 700.

Turning to `CC(=O)N[C@H](CS(=O)(=O)c1ccc(Sc2ccccc2)cc1)C(=O)NO`, the IC50 against Collagenase 3 is 2.9 nM; against Interstitial collagenase, 10000 nM. Further, the Selectivity in series [2] amounted to 3400.

Turning to `CC(=O)NC(CS(=O)(=O)c1ccc(Sc2ccccc2)cc1)C(=O)NO` (centres undefined), the Selectivity in series [2] is greater than 1700.

With `Cc1ccc(S(=O)(=O)NC(CS(=O)(=O)c2ccc(Sc3ccccc3)cc2)C(=O)NO)cc1` (centres undefined), the Selectivity in series [2] was 1500.

As to `O=C(N[C@H](CS(=O)(=O)c1ccc(Oc2ccccc2)cc1)C(=O)NO)c1ccncc1`, the IC50 turned out to be 0.8 nM against Collagenase 3 and 900 nM against Interstitial collagenase. Besides, the Cmax in series [1] is less than 200 ng/mL. The molecule also registered a Selectivity in series [2] of 1100.

Molecule `COc1ccc(S(=O)(=O)CC(NC(C)=O)C(=O)NO)cc1` (centres undefined) showed a Selectivity in series [2] of 20.

As for `COc1ccc(S(=O)(=O)CC(NC(=O)OC(C)(C)C)C(=O)NO)cc1` (centres undefined), the IC50 amounted to 15 nM against Collagenase 3 and 1500 nM on Interstitial collagenase. Further, in series [2], the Selectivity turned out to be 100.

In the case of `O=C(N[C@H](CS(=O)(=O)c1ccc(Sc2ccccc2)cc1)C(=O)NO)OCc1ccccc1`, the figures for the IC50 on Collagenase 3 and on Interstitial collagenase were 0.4 nM and 8000 nM, respectively. The Selectivity in series [2] is 20000.

Turning to `COc1cccc(OC)c1C(=O)N[C@H](CS(=O)(=O)c1ccc(Oc2ccccc2)cc1)C(=O)NO`, the IC50 at Collagenase 3 turned out to be 0.4 nM; against Interstitial collagenase it was 350 nM. The Cmax in series [1] was less than 200 ng/mL. This molecule gave a Selectivity in series [2] of 870.

For `CN(C(=O)Cc1ccncc1)[C@H](CS(=O)(=O)c1ccc(Oc2ccccc2)cc1)C(=O)NO`, the IC50 against Collagenase 3 was 2 nM. Also, in series [1], the Cmax was 710 ng/mL. In series [2], the Selectivity was 130.

For `COc1ccc(S(=O)(=O)CC(NC(=O)CNC(=O)OCc2ccccc2)C(=O)NO)cc1` (centres undefined), the Selectivity in series [2] is greater than 40.

As for `CN[C@H](CS(=O)(=O)c1ccc(Oc2ccccc2)cc1)C(=O)NO`, the IC50 against Collagenase 3 turned out to be 0.4 nM; at Interstitial collagenase, 440 nM. The Cmax came out at 6660 ng/mL in series [1] and 49 ng/mL in series [3]. In addition, in series [2], the Selectivity was found to be 1100.

In series [2], `Cc1ccc(S(=O)(=O)NC(CS(=O)(=O)c2ccc(Oc3ccccc3)cc2)C(=O)NO)cc1` (centres undefined) had a Selectivity of 670.

Take `O=C(NC(CS(=O)(=O)c1ccc(Sc2ccccc2)cc1)C(=O)NO)OCc1ccccc1` (centres undefined): the Selectivity in series [2] was greater than 2700.

On to `CC(C)(C)OC(=O)N[C@H](CS(=O)(=O)c1ccc(Oc2ccccc2)cc1)C(=O)NO`, for which the figures for the IC50 on Collagenase 3 and at Interstitial collagenase were 0.3 nM and 500 nM, respectively. The Cmax in series [1] was less than 200 ng/mL. The same molecule had a Selectivity in series [2] of 1600.

`CN(C(=O)OC(C)(C)C)[C@H](CS(=O)(=O)c1ccc(Oc2ccccc2)cc1)C(=O)NO` yielded a Selectivity in series [2] of 5300.

In the case of `NC(CS(=O)(=O)c1ccc(Sc2ccccc2)cc1)C(=O)NO` (centres undefined), the Selectivity in series [2] worked out at 420.

As for `CN(Cc1ccccc1)[C@H](CS(=O)(=O)c1ccc(Oc2ccccc2)cc1)C(=O)NO`, the Selectivity in series [2] was 2400.

`O=C(NC(CS(=O)(=O)c1ccc(Oc2ccccc2)cc1)C(=O)NO)OCc1ccccc1` (centres undefined): the IC50 against Collagenase 3 was determined as 1.1 nM; at Interstitial collagenase, 1400 nM. Further, the Selectivity in series [2] came to 1300.

For `COc1ccc(S(=O)(=O)CC(N)C(=O)NO)cc1` (centres undefined), the Selectivity in series [2] was found to be 17.

On to `O=C(CNC(=O)OCc1ccccc1)NC(CS(=O)(=O)c1ccc(Sc2ccccc2)cc1)C(=O)NO` (centres undefined), for which, in series [2], the Selectivity was greater than 12000.

Consider `CC(C)(C)OC(=O)N[C@H](CS(=O)(=O)c1ccc(Sc2ccccc2)cc1)C(=O)NO`, for which the IC50 against Collagenase 3 was 4 nM; at Interstitial collagenase, greater than 10000 nM. Besides, the Selectivity in series [2] was greater than 2500.
